Reference: patent US5945426A, “Derivatives of pyrimidine for treating acute cerebrovascular disorders” (Nippon Shinyaku Co., Ltd., priority 1994, dated 1999)
Where a name gives a salt, the structure may show the parent alone.

Assays:
[1] = test system: pyramidal cells in the hippocampal CA-1 subfield; experiment: Delayed Neuronal Death (DND) Inhibitory Activity in Gerbils (transient ischemia, bilateral common carotid artery occlusion); format: in vivo; settings: for DND inhibition (score of neuronal death in the hippocampal CA-1 subfield): given at reperfusion after 5-minute ischemia, score 0 (0-10% death) to 4 (75-100% death), control 4.00, n=5, **: p < 0.01 (Wilcoxon's U test)
Excerpt: Delayed Neuronal Death (DND) Inhibitory Activity in Gerbils
The delayed neuronal death protective effect of the compound of the invention was confirmed by an experiment using gerbils. This test is the most widely used for all relevant in vivo evaluation protocols and it is reported that any drug showing DND inhibitory activity in this test system can be expected to be clinically effective in humans [GENDAI-IRYO, 24, 129-133 (1992), Neurology 1987, 37, 1281-1287).
Male gerbils weighing 60-80 g were anesthetized with pentobarbital sodium 35 mg/kg i.p. and placed in supine position. After the skin in the cervical region was incised, the bilateral common carotid arteries were exposed and sutures were placed around each artery. Both ends of each suture was introduced into a polyethylene tube and in suturing the incised wound, the tube was secured to the cervical skin with the suture emerged from the other end of the tube. On the following day, with the animal under no anesthesia, both ends of the suture were gently pulled out and the carotid artery snared by the suture was urged in a bent position into the tube to thereby occlude the carotid artery. After a transient ischemic loading of 5 minutes' duration by occlusion of the bilateral common carotid arteries, the arteries were reperfused. After 7 days, the brain was excised and fixed. A section centered around the hippocampus was prepared and Nissle-stained with 0.05% cresyl violet and the pyramidal cells in the hippocampal CA-1 subfield were microscopically examined for degeneration and death. The degree of neuronal death was scored according to the following criteria.
Criteria for evaluation of neuronal death in the hippocampal CA-1 subfield

Acute Toxicity Study = format: in vivo
Experimental: Male SD rats (Slc:SD, Japan SLC) were used. The rats were purchased at 7 weeks of age and the animals which went through a week-long quarantine and acclimation were used in groups of 6. The dose volume was 5 ml/kg for intraperitoneal administration and 10 ml/kg for intravenous administration. […] The drug solutions were prepared using physiological saline and filtered through a 0.22 μm bacterial filter.

[2] = background art; cited from earlier work
NMDA receptor = experiment: NMDA-Induced Convulsion Inhibitory Activity; format: in vivo, Mice; settings: 20 mg/kg, i.p. 30 minutes before NMDA 200 mg/kg i.p.
Experimental: NMDA-Induced Convulsion Inhibitory Activity
Mice were intraperitoneally dosed with 200 mg/kg of N-methyl-D-aspartate (NMDA) and observed for the consequent convulsion and death over a period of 30 minutes after administration. As test drugs, the compound of Example 1, compound of Example 2, compound of Reference Example 10, and compound of Reference Example 12 were used and each was administered intraperitoneally 30 minutes before administration of NMDA.

[3] = test system: cerebral infarction (middle cerebral artery occlusion); experiment: Protection of Cerebral Infarction in Rats With Middle Cerebral Artery Occlusion; format: in vivo, Male SD rats; settings: 0.125 mg/kg, intravenously after middle cerebral artery occlusion
Excerpt: Protection of Cerebral Infarction in Rats With Middle Cerebral Artery Occlusion
The cerebral infarction protective effect of the compound of the invention was confirmed in a rat middle cerebral artery occlusion model. This is an animal model of brain regional ischemia which is similar to human cerebral infarction and it is known that the model is useful as a therapeutic model as well (Cerebral Apoplexy Experiment Handbook, 91-97, 1990, published by ICP). Any drug showing cerebral infarction protective activity in this test system can be expected to be clinically effective in humans.
Male SD rats aged 7-8 weeks were anesthetized with ketamin hydrochloride 120-150 mg/kg, i.p. and the head was placed in lateral recumbent position on an operation table. […] Then, the frontal sections were photographed and using an image processor, the areas of infarction were measured. The percentage of the infarct area in the frontal section 6 mm caudal to frontal rostrum, that is at the striatal level, relative to the total area of the tissue section and the total infarct area of the 5 frontal sections prepared at 2 mm intervals from the frontal rostrum was calculated and the percentage of the total infarct area relative to the total area of all the sections was calculated. […]

delayed neuronal death = settings: background art; cited from earlier work

| Compound | DND inhibition (score of neuronal death in the hippocampal CA-1 subfield) ([1]; 50 mg/kg i.p.) | general condition of animals (Acute Toxicity Study; rat, in vivo, ip) | inhibition of NMDA-induced convulsion (NMDA receptor) | also measured |
| --- | --- | --- | --- | --- |
| Cc1nc(OC(C)CCCN2CCCCC2)cc(-c2ccc(F)cc2)n1.Cl (centres unmarked) [Example 21, 4-(4-Fluorophenyl)-2-methyl-6-(1-methyl-4-piperidinobutoxy)pyrimidine hydrochloride] | 0.60 | no remarkable change |  |  |
| Cc1cc(-c2ccc(F)cc2)cc(OCCCCCN2CCCCC2)n1.Cl [Example 18, 4-(4-Fluorophenyl)-2-methyl-6-(5-piperidinopentyloxy)pyridine hydrochloride] | 0.80 | no remarkable change |  |  |
| Cc1cc(OCCN2CCN(c3ccccc3)CC2)nc(-c2ccccc2)n1 [4-methyl-2-phenyl-6-[2-(4-phenylpiperazin-1-yl)ethyloxy]pyrimidine] |  |  |  | α-sympatholytic activity (sedation, hypotension, and vasodilation) [2]: has α-sympatholytic activity (sedation, hypotension, and vasodilation) |
| Cc1nc(OCCCCCN2CCCCC2)cc(-c2ccc(F)cc2)n1.Cl [Example 1, 4-(4-Fluorophenyl)-2-methyl-6-(5-piperidinopentyloxy)pyrimidine hydrochloride] | 0.60 |  | did not inhibit | protection activity against the delayed neuronal death, post-ischemia dosing ([1]; single dose after a lapse of 1-2 hours after ischemia): exhibited a protection activity against the delayed neuronal death; general condition of animals (Acute Toxicity Study; intraperitoneal, observed daily for 7 days): no remarkable change; LD50 at 168 h (Acute Toxicity Study; rat, in vivo, ip, intraperitoneal): 65.8 mg/kg; LD50 at 168 h (Acute Toxicity Study; rat, in vivo, intravenous): 22.8 mg/kg; inhibition of neuronal death in the rat model of persistent brain ischemia [3]: markedly inhibited neuronal death |
| Cc1cc(OCCCN2CCCCC2)nc(-c2ccc(F)cc2)n1.Cl [Reference Example 12, 2-(4-Fluorophenyl)-4-methyl-6-(3-piperidinopropoxy)pyrimidine hydrochloride] |  |  | did not inhibit |  |
| Cc1cc(OCCCCN2CCCCC2)nc(-c2ccc(F)cc2)n1.Cl [Example 4, 2-(4-Fluorophenyl)-4-methyl-6-(4-piperidinobutoxy)pyrimidine hydrochloride] | 0.60 | no remarkable change |  |  |
| Cc1cc(-c2ccc(F)cc2)cc(OCCCN2CCCCC2)n1.Cl [Example 16, 4-(4-Fluorophenyl)-2-methyl-6-(3-piperidinopropoxy)pyridine hydrochloride] | 0.60 | no remarkable change |  |  |
| Cc1nc(OCCCN2CCCCC2)cc(-c2ccc(F)cc2)n1.Cl [Reference Example 10, 4-(4-Fluorophenyl)-2-methyl-6-(3-piperidinopropoxy)pyrimidine hydrochloride] | 0.60 | no remarkable change | did not inhibit |  |
| CCCn1cnc2c1c(=O)n(CCCCC(C)=O)c(=O)n2C [propentofylline] |  |  |  | effect against delayed neuronal death (delayed neuronal death): effective against delayed neuronal death |
| Cc1nc(OCCCCN2CCCCC2)cc(-c2ccc(F)cc2)n1.Cl [Example 2, 4-(4-Fluorophenyl)-2-methyl-6-(4-piperidinobutoxy)pyrimidine hydrochloride] | 0.80 | no remarkable change | did not inhibit |  |
| Cc1nc(OCCCCCCN2CCCCC2)cc(-c2ccc(F)cc2)n1 [Example 3, 4-(4-Fluorophenyl)-2-methyl-6-(6-piperidinohexyloxy)primidine hydrochloride] |  | no remarkable change |  | DND inhibition (score of neuronal death in the hippocampal CA-1 subfield) ([1]; 30 mg/kg, i.p.): 0.60 |
